Patent US8053418B2, “Anti-penicillin resistant pneumococci agent and novel 16-membered macrolide derivative” (Microbial Chemistry Research Foundation, priority 2005, dated 2011)
Converted amounts (≈) assume the structure as drawn. Where two headings read alike, the source gives them in different places.

Columns and labels:
Format in all cases: cell-based
[1] = test system: Streptococcus pneumoniae IMC B-0922 (PRSP); assay: Antimicrobial activity test (MIC), clinical isolate IMC B-0922; settings: PRSP clinical isolate IMC B-0922
Protocol: (§1) Using Streptococcus pneumoniae that include clinical isolates of PRSP, the antimicrobial activity of each of the prepared anti-PRSP agents was measured in accordance with the “determination method of minimum inhibitory concentration of drug against bacteria” of Japanese Society of Chemotherapy (for re-revised version, see Chemotherapy 29; 76, 1981).
(§2) 11 test strains of Streptococcus pneumoniae including IMC B-0919 are all clinical isolates, of which 2 strains, IMC B-0921 and IMC B-1229, are classified into penicillin susceptible Streptococcus pneumoniae (PSSP) and the remaining 9 strains are classified into penicillin-resistant Streptococcus pneumoniae (PRSP) (according to NCCLS standards).

[2] = test system: Streptococcus pneumoniae IMC B-0920 (PRSP); assay: Antimicrobial activity test (MIC), clinical isolate IMC B-0920; settings: PRSP clinical isolate IMC B-0920
Protocol: as §1, §2

[3] = test system: Streptococcus pneumoniae IMC B-1235 (PRSP); assay: Antimicrobial activity test (MIC), clinical isolate IMC B-1235; settings: PRSP clinical isolate IMC B-1235
Protocol: as §1, §2

[4] = test system: Streptococcus pneumoniae IMC B-0919 (PRSP); assay: Antimicrobial activity test (MIC), clinical isolate IMC B-0919; settings: PRSP clinical isolate IMC B-0919
Protocol: as §1, §2

[5] = test system: Streptococcus pneumoniae IMC B-1232 (PRSP); assay: Antimicrobial activity test (MIC), clinical isolate IMC B-1232; settings: PRSP clinical isolate IMC B-1232
Protocol: as §1, §2

[6] = test system: Streptococcus pneumoniae IMC B-1231 (PRSP); assay: Antimicrobial activity test (MIC), clinical isolate IMC B-1231; settings: PRSP clinical isolate IMC B-1231
Protocol: as §1, §2

[7] = test system: Streptococcus pneumoniae IMC B-1229 (PSSP); assay: Antimicrobial activity test (MIC), clinical isolate IMC B-1229; settings: PSSP clinical isolate IMC B-1229
Protocol: as §1, §2

[8] = test system: Streptococcus pneumoniae IMC B-1233 (PRSP); assay: Antimicrobial activity test (MIC), clinical isolate IMC B-1233; settings: PRSP clinical isolate IMC B-1233
Protocol: as §1, §2

[9] = test system: Streptococcus pneumoniae IMC B-1234 (PRSP); assay: Antimicrobial activity test (MIC), clinical isolate IMC B-1234; settings: PRSP clinical isolate IMC B-1234
Protocol: as §1, §2

[10] = test system: penicillin-resistant Streptococcus pneumoniae (PRSP); assay: Anti-PRSP activity, overall statements on the clinical isolates; settings: statement in words
Protocol: as §1, §2
For the compounds of the present invention, MKT-1011, MKT-2003, MKT-3002 and MKT-3003, the antimicrobial activity was measured in the same way as in Experimental Example 1.

[11] = test system: Streptococcus pneumoniae IMC B-0921 (PSSP); assay: Antimicrobial activity test (MIC), clinical isolate IMC B-0921; settings: PSSP clinical isolate IMC B-0921
Protocol: as §1, §2

[12] = test system: Streptococcus pneumoniae IMC B-1236 (PRSP); assay: Antimicrobial activity test (MIC), clinical isolate IMC B-1236; settings: PRSP clinical isolate IMC B-1236
Protocol: as §1, §2

[13] = Streptococcus pneumoniae, read-out: MIC

Row | Compound | MIC [1] [µg/mL] | MIC [2] [µg/mL] | MIC [3] [µg/mL] | MIC [4] [µg/mL] | MIC [5] [µg/mL] | MIC [6] [µg/mL] | MIC [7] [µg/mL] | MIC [8] [µg/mL] | MIC [9] [µg/mL] | anti-PRSP activity [10] | MIC [11] [µg/mL] | MIC [12] [µg/mL] | further results
1 | CCC1OC(=O)CCC(C)C(OC2OC(C)CC(N(C)C)C2O)C(CC=O)CC(C)C(=O)C=CC(C)=CC1COC(C)=O (stereo not drawn) [MKT-2002] | 0.1 (≈ 0.165 µM) | 0.05 (≈ 0.0823 µM) | 25 (≈ 41.1 µM) | 0.1 (≈ 0.165 µM) | 0.05 (≈ 0.0823 µM) | 0.39 (≈ 0.642 µM) | 0.1 (≈ 0.165 µM) | 0.05 (≈ 0.0823 µM) | 0.1 (≈ 0.165 µM) | high anti-PRSP activity | 0.1 (≈ 0.165 µM) | 12.5 (≈ 20.6 µM) | –
2 | CCC1OC(=O)CCC(C)C(OC2OC(C)CC(N(C)C)C2O)C(CC=O)CC(C)C(=O)C=CC(C)=CC1CSc1ncccn1 (stereo not drawn) [MKT-3802] | 0.05 (≈ 0.0758 µM) | <0.025 | 12.5 (≈ 18.9 µM) | <0.025 | <0.025 | 0.39 (≈ 0.591 µM) | 0.05 (≈ 0.0758 µM) | <0.025 | 0.025 (≈ 0.0379 µM) | high anti-PRSP activity | 0.05 (≈ 0.0758 µM) | 12.5 (≈ 18.9 µM) | –
3 | CC[C@H]1OC(=O)CC[C@H](C)[C@@H](OC2OC(C)CC(N(C)C)C2O)[C@@H](CC=O)C[C@@H](C)C(=O)/C=C/C(C)=C/[C@@H]1COCOCc1ccccc1 (stereo partly drawn) [MKT-3703] | – | – | – | – | – | – | – | – | – | high anti-PRSP activity | – | – | MIC [1, 13]: < 0.025 µg/mL; MIC [2, 13]: 0.025 µg/mL (≈ 0.0364 µM); MIC [3, 13]: 6.25 µg/mL (≈ 9.11 µM); MIC [4, 13]: < 0.025 µg/mL; MIC [5, 13]: < 0.025 µg/mL; MIC [6, 13]: 6.25 µg/mL (≈ 9.11 µM); MIC [7, 13]: 0.1 µg/mL (≈ 0.146 µM); MIC [8, 13]: < 0.025 µg/mL; MIC [9, 13]: < 0.025 µg/mL; MIC [11, 13]: < 0.025 µg/mL; MIC [12, 13]: 12.5 µg/mL (≈ 18.2 µM)
4 | CCC1OC(=O)CCC(C)C(OC2OC(C)CC(N(C)C)C2O)C(CC=O)CC(C)C(=O)C=CC(C)=CC1CNC(=O)c1ccccc1 (stereo not drawn) [MKT-3202] | <0.025 | 0.2 (≈ 0.299 µM) | 0.1 (≈ 0.15 µM) | 0.2 (≈ 0.299 µM) | 0.1 (≈ 0.15 µM) | 0.05 (≈ 0.0748 µM) | <0.025 | <0.025 | <0.025 | high anti-PRSP activity | <0.025 | 6.25 (≈ 9.34 µM) | –
